Measurements from the supplement of paper PMC10307832.

Key:
Experiment in all cases: relative viability (nuclei count vs DMSO), 5 days (fraction); higher = more cells survive
[1] = compound: C1=CC2=C(C=C(C(=C2N=C1)O)N=NC3=CC4=C(C=C3)C=C(C=C4)S(=O)(=O)O)S(=O)(=O)O + CS(=O)(=O)N1CCN(Cc2cc3nc(-c4cccc5[nH]ncc45)nc(N4CCOCC4)c3s2)CC1 [Pictilisib] (partner 1 µM)
How it was run: (§1)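 Lung cancer cell lines, seeded in 1536-well plates, were treated the following day by pin tool with a single drug or with five library-drug doses (not always all listed) in √10 steps on top of a fixed anchor-drug dose. Cells were fixed and nuclei stained in one step after 5 days, and nuclei were counted. Relative viability is the nuclei count for treated wells divided by that for vehicle wells, reported as medians of duplicate plates.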

[2] = compound: O=C(NC1CCNCC1)c1n[nH]cc1NC(=O)c1c(Cl)cccc1Cl [AT-7519] + O=C(c1cc(Cc2n[nH]c(=O)c3ccccc23)ccc1F)N1CCN(C(=O)C2CC2)CC1 [Olaparib] (partner 8 µM)
How it was run: as §1

[3] = compound: C1=CC2=C(C=C(C(=C2N=C1)O)N=NC3=CC4=C(C=C3)C=C(C=C4)S(=O)(=O)O)S(=O)(=O)O + COc1cc2c(Oc3ccc(NC(=O)C4(C(=O)Nc5ccc(F)cc5)CC4)cc3F)ccnc2cc1OCCCN1CCOCC1 [Foretinib] (partner 0.25 µM)
How it was run: as §1

[4] = compound: O=C(NC1CCNCC1)c1n[nH]cc1NC(=O)c1c(Cl)cccc1Cl [AT-7519] + Cc1cc(Nc2cc(N3CCN(C)CC3)nc(Sc3ccc(NC(=O)C4CC4)cc3)n2)n[nH]1 [Tozasertib] (partner 0.1 µM)
How it was run: as §1

Cell Line | relative viability ([1]; first compound 0.08 µM) | relative viability ([1]; first compound 0.253 µM) | relative viability ([1]; first compound 0.8 µM) | relative viability ([1]; first compound 2.53 µM) | relative viability ([1]; first compound 8 µM) | relative viability ([2]; first compound 0.01 µM) | relative viability ([2]; first compound 0.03162 µM) | relative viability ([2]; first compound 0.3162 µM) | relative viability ([2]; first compound 1 µM) | relative viability ([3]; first compound 0.08 µM) | relative viability ([3]; first compound 0.253 µM) | relative viability ([3]; first compound 0.8 µM) | relative viability ([3]; first compound 2.53 µM) | relative viability ([3]; first compound 8 µM) | relative viability ([4]; first compound 0.01 µM) | relative viability ([4]; first compound 0.03162 µM) | relative viability ([4]; first compound 0.3162 µM) | relative viability ([4]; first compound 1 µM)
NCI-H2087 | 1.07 | 0.863 | 0.77 | 0.945 | 0.909 | 0.607 | 0.515 | 0.421 | 0.0663 | 1.07 | 1.14 | 0.873 | 1.1 | 0.921 | 0.255 | 0.269 | 0.282 | 0.0867
BEN | 0.617 | 0.564 | 0.493 | 0.667 | 0.48 | 1.03 | 1.1 | 1.03 | 0.809 | 0.489 | 0.521 | 0.732 | 0.686 | 0.429 | 0.391 | 0.459 | 0.501 | 0.597
LCLC-103H | 0.662 | 0.625 | 0.489 | 0.615 | 0.705 | 0.763 | 0.805 | 0.834 | 0.833 | 0.87 | 0.852 | 0.684 | 0.749 | 0.747 | 0.489 | 0.408 | 0.511 | 0.432
EKVX | 0.419 | 0.45 | 0.438 | 0.413 | 0.399 | 0.816 | 0.758 | 0.809 | 0.995 | 0.818 | 0.712 | 0.797 | 0.861 | 0.272 | 0.454 | 0.389 | 0.403 | 0.531
LXF-289 | 0.874 | 0.684 | 0.73 | 0.793 | 0.8 | 1.09 | 1.15 | 1.02 | 1.06 | 1.09 | 0.987 | 0.998 | 0.974 | 0.914 | 0.159 | 0.184 | 0.195 | 0.178
ABC-1 | 0.629 | 0.63 | 0.579 | 0.67 | 0.643 | 1.02 | 0.646 | 0.608 | 0.454 | 1.19 | 1.02 | 0.915 | 1.27 | 0.374 | 0.199 | 0.155 | 0.189 | 0.195
NCI-H650 | 0.907 | 0.859 | 0.909 | 0.92 | 0.833 | 0.413 | 0.384 | 0.439 | 0.349 | 1.13 | 1.07 | 1.01 | 1.02 | 1.06 | 0.784 | 0.646 | 0.716 | 0.675
NCI-H1650 | 0.645 | 0.587 | 0.529 | 0.648 | 0.596 | 0.899 | 0.776 | 0.75 | 0.193 | 1.34 | 1.17 | 1.38 | 1.01 | 0.448 | 0.532 | 0.436 | 0.392 | 0.148
NCI-H2085 | 0.38 | 0.465 | 0.406 | 0.571 | 0.497 | 0.768 | 0.806 | 0.744 | 0.724 | 1.08 | 0.886 | 0.894 | 0.963 | 0.634 | 0.768 | 0.853 | 0.787 | 0.819
NCI-H1793 | 0.313 | 0.323 |  | 0.291 | 0.369 | 0.849 | 0.774 | 0.786 | 0.546 | 0.539 | 0.606 | 0.674 | 0.749 | 0.71 | 0.32 | 0.323 | 0.33 | 0.312
LC-2-ad | 0.429 | 0.476 | 0.532 | 0.405 | 0.423 | 0.75 | 0.726 | 0.736 | 0.622 | 1.13 | 0.874 | 0.966 | 0.906 | 0.865 | 0.49 | 0.467 | 0.519 | 0.266
COR-L 105 | 0.397 | 0.362 | 0.379 | 0.401 | 0.4 | 0.71 | 0.714 | 0.726 | 0.564 | 0.961 | 0.94 | 1.03 | 1.02 | 0.886 | 0.327 | 0.382 | 0.378 | 0.413
NCI-H1355 | 0.423 | 0.433 | 0.401 | 0.473 | 0.441 | 0.687 | 0.765 | 0.789 | 0.68 | 1.1 | 0.988 | 0.92 | 1.03 | 0.996 | 0.566 | 0.535 | 0.537 | 0.508
H3255 | 0.482 | 0.462 | 0.4 | 0.49 | 0.439 | 0.581 | 0.514 | 0.527 | 0.451 | 0.693 | 0.851 | 0.835 | 0.916 | 0.628 | 0.998 | 0.506 | 0.622 | 0.582
NCI-H1993 | 0.887 | 0.802 | 0.938 | 0.921 | 0.782 | 1.04 | 0.833 | 0.973 | 0.769 | 0.766 | 0.78 | 0.825 | 0.734 | 0.643 | 0.547 | 0.584 | 0.544 | 0.506
NCI-H1734 | 0.565 | 0.434 | 0.426 | 0.492 | 0.455 | 0.535 | 0.585 | 0.537 | 0.263 | 0.916 | 0.892 | 0.777 | 0.891 | 0.88 | 0.296 | 0.261 | 0.25 | 0.102
HOP-62 | 0.842 | 0.707 | 0.651 | 0.723 | 0.691 | 0.558 | 0.248 | 0.189 | 0.373 | 1.23 | 1.03 | 1.13 | 1.15 | 1.04 | 0.344 | 0.279 | 0.353 | 0.399
LOU-NH91 | 0.57 | 0.523 | 0.539 | 0.486 | 0.524 | 0.911 | 0.899 | 0.931 | 0.785 | 0.974 | 0.946 | 0.93 | 0.917 | 1.01 | 0.722 | 0.679 | 0.676 | 0.57
ChaGo-K-1 | 0.645 | 0.669 | 0.673 | 0.851 | 0.711 | 0.379 | 0.403 | 0.431 | 0.403 | 0.953 | 0.986 | 0.855 | 1.02 | 0.927 | 0.224 | 0.23 | 0.215 | 0.204
NCI-H2228 | 0.435 | 0.427 | 0.289 | 0.567 | 0.291 | 0.54 | 0.602 | 0.569 | 0.208 | 0.902 | 0.826 | 0.87 | 0.878 | 0.923 | 0.253 | 0.273 | 0.227 | 0.179
PC-14 | 0.845 | 0.682 | 0.621 | 0.585 | 0.673 | 0.234 | 0.227 | 0.231 | 0.104 | 1.16 | 0.905 | 0.815 | 0.971 | 1.11 | 0.591 | 0.677 | 0.526 | 0.392
NCI-H1437 | 0.489 | 0.419 | 0.47 | 0.507 | 0.56 | 0.644 | 0.643 | 0.574 | 0.279 | 1.33 | 1.23 | 1.32 | 1.27 | 0.66 | 0.418 | 0.399 | 0.402 | 0.34
NCI-H460 | 0.356 | 0.366 | 0.336 | 0.344 | 0.104 | 0.367 | 0.456 | 0.315 | 0.18 | 1.12 | 1.01 | 1.01 | 1.01 | 0.928 | 0.699 | 0.473 | 0.462 | 0.193
NCI-H1666 | 0.459 | 0.383 | 0.358 | 0.42 | 0.479 | 0.674 | 0.724 | 0.68 | 0.65 | 1.05 | 0.962 | 0.962 | 0.958 | 0.747 | 0.539 | 0.571 | 0.501 | 0.413
NCI-H1651 | 0.777 | 0.517 | 0.489 | 0.593 | 0.563 | 0.201 | 0.172 | 0.163 | 0.204 | 0.923 | 0.727 | 0.864 | 0.857 | 0.623 | 0.7 | 0.679 | 0.646 | 0.556
NCI-H1755 | 0.407 | 0.44 | 0.446 | 0.47 | 0.246 | 0.946 | 0.957 | 0.949 | 0.854 | 0.915 | 0.916 | 0.869 | 0.944 | 0.89 | 0.489 | 0.618 | 0.578 | 0.547
NCI-H661 | 0.372 | 0.345 | 0.359 | 0.517 | 0.353 | 0.775 | 0.834 | 0.762 | 0.251 | 1.12 | 0.989 | 0.981 | 1.08 | 1.04 | 0.378 | 0.352 | 0.392 | 0.314
HARA | 0.356 | 0.471 | 0.384 | 0.38 | 0.707 | 0.753 | 0.478 | 0.482 | 0.301 | 1.23 | 0.896 | 0.914 | 0.901 | 0.821 | 0.129 | 0.0981 | 0.147 | 0.155
NCI-H596 | 0.408 | 0.385 | 0.377 | 0.428 | 0.417 | 0.64 | 0.733 | 0.691 | 0.644 | 0.902 | 0.904 | 0.82 | 1.01 | 0.737 | 0.78 | 0.811 | 1 | 0.849
